Assay: Metabolite profiling and identification in plasma, urine and feces (LC/RAM/MS)
Type: in vivo, human
Set-up: key to Plasma %AUC (percentage of total plasma radioactivity) / Urine %Dose / Feces %Dose: +: No radioactive peaks were detected, but mass spectrometry peaks were detected; ND: not detectable
Settings: for Urine %Dose: pooled 0–72 h urine, total in urine 37.15%
Experimental: The plasma samples from six subjects were pooled individually according to the AUC method to obtain 6 plasma samples of 0–72 h ([Hop et al., 1998]). A portion of the proportionally mixed plasma sample was taken and added to a certain volume of acetonitrile (3×, v/v) for extraction, vortexed for 1 min, shaken for 10 min and then stored in a refrigerator at 4°C for 30 min, the mixture was removed and vortexed for 2 min and then centrifuged for 10 min at 10,000×g and 4°C. The residue from the extraction was firstly ultrasonically suspended using 1 mL of ultrapure water and then extracted using methanol (2×, v/v) and repeated twice. The organic solvent extracts were combined, blown dry with nitrogen and reconstituted with acetonitrile: ultrapure water (1:1), the reconstituted solution was centrifuged at 4°C and 10,000×g for 10 min, and the supernatant was used for radio-metabolite profiling.
The radioactivity in the organic solvent extract and the reconstitution solution was determined by LSC. The solid residue after extraction was dissolved by heating with 1N KOH solution and added to the scintillation solution to determine its radioactivity. All the final data were used to examine the recovery of radioactivity during plasma extraction.
The urine samples from the six subjects were mixed in the same volume percentage to obtain six 0–72 h urine samples. A portion of the proportionally mixed urine sample was centrifuged for 10 min at approximately 10,000×g and 4°C. Two samples were taken before and after centrifugation, and the radioactivity of the samples was determined by LSC, and the data obtained were used to calculate the recovery of radioactivity during the centrifugation process. A portion of the supernatant after centrifugation was used directly for radio-metabolite profiling.
The fecal samples from the six subjects were mixed with the same weight percentage to obtain 6 fecal homogenate samples of 0–168 h. A portion of the proportionally mixed fecal homogenate samples was taken and extracted by adding a volume of acetonitrile (3×, v/v), vortexed for 5 min at room temperature, sonicated for 5 min and then centrifuged for 10 min at 10,000 × g and 4°C. The residue of the extracted material was firstly sonicated and mixed using about 1 mL of ultrapure water before extracted using methanol (2×, v/v). The process was repeated twice and the organic extracts were combined, blown dry using nitrogen and then reconstituted with dimethyl sulfoxide: acetonitrile: ultrapure water (3:2:5), the reconstituted solution was centrifuged at 10,000×g at 4°C for 10 min and the supernatant was used for radio-metabolite profiling. […] LSC was used to determine the intensity of radioactivity contained in the organic solvent extract and in the reconstituted solution. The solid residue after extraction is fully combusted by an oxidative combustor, and the [^14C]carbon dioxide produced by combustion of the sample is captured with a scintillation solution to determine its radioactivity intensity. All final data were used to examine the extraction and recovery of radioactivity from fecal homogenate samples.
A high performance liquid chromatograph coupled with an online isotope detector and mass spectrometry (LC/RAM/MS) was used for the identification of radioactive metabolite profiles. The HPLC method consisted of an HPLC system (Shimadzu UFLC-20A-Lite), a chromatographic column (ACE Excel 3 C18, 150 × 4.6 mm id), mobile phase A (0.4% aqueous formic acid, pH = 3.2 adjusted with ammonia) and mobile phase B (acetonitrile) at a flow rate of 0.7 mL/min. The gradient was 0% B for the 0–5 min, 20% B from 15 min to 30 min, 22% B from 32 to 40 min, and 70%–100% B from 60 to 72 min. The column temperature was 28°C. […]

## C[C@H](Nc1ncnc(N)c1C#N)c1cc2ncc(Cl)n2nc1-c1ccccc1 [Amdizalisib]
  F: %Dose in feces (Figure 4): 1.21%
  P: %AUC in plasma (Figure 4): 51.45%
  U: %Dose in urine (Figure 4): +
AUC-pooled 0–72 h plasma, mean of 6 subjects
  Plasma %AUC (percentage of total plasma radioactivity): 51.45 %AUC
Mean of 6 subjects
  Urine %Dose: +
Mean of 6 subjects, listed as parent drug
  Urine %Dose: detected only by mass spectrometry
Pooled 0–168 h feces, mean of 6 subjects, total in feces 62.08%
  Feces %Dose: 1.21 %Dose
Subject 01001
  %AUC in AUC-pooled plasma: 57.45 %AUC
  %Dose in pooled feces: 0.77 %Dose
Subject 01002
  %AUC in AUC-pooled plasma: 65.57 %AUC
  %Dose in pooled feces: 0.25 %Dose
Subject 01003
  %AUC in AUC-pooled plasma: 56.65 %AUC
  %Dose in pooled feces: 1.93 %Dose
Subject 01004
  %AUC in AUC-pooled plasma: 59.14 %AUC
  %Dose in pooled feces: 1.52 %Dose
Subject 01005
  %AUC in AUC-pooled plasma: 54.59 %AUC
  %Dose in pooled feces: 2.32 %Dose
Subject 01006
  %AUC in AUC-pooled plasma: 15.32 %AUC
  %Dose in pooled feces: 0.48 %Dose
